One block for each molecule: values may come before it.
Key:
Format in all cases: physicochemical
[1] = Final polymorph after holding in different solvents at different temperatures
Protocol: Thus, preferably the solution of 3-[5-amino-4-(3-cyanobenzoyl)-pyrazol-1-yl]-N-cyclopropyl-4-methylbenzamide is not exposed to temperatures of greater than 70° C. for more than 24 hours, preferably not more than 12 hours, preferably not more than 6 hours.
Thus, it can be seen that at the higher temperatures of 70 and 80° C., conversion to Form B is effected, or a mixture of Form A and Form B are produced, particularly over longer periods of time. It can also be seen that the hydrate is formed when water is included in the solvent.

[2] = Hygroscopicity (statement, method not given)
[3] = Variable temperature XRPD of Form A
Protocol: The sample was placed in Anton-Paar TTK 450 chamber at 25° C. The temperature was controlled in-situ through the measurement files: p2853-vt, LRP-1301-39-01.dql, LRP-1301-42-01.dql, LRP-1301-42-02.dql. The sample was heated from 25° C. to 200° C. at 1° C./min. XRPD data were collected from 30° C. to 200° C. every 10° C. Approximately 40 mg of the sample was placed in a Ni-coated sample holder under ambient conditions. The sample was loaded at 25° C.
At 200° C., changes (shifts) in peak position in the high 2-theta region were observed. This may be attributed to the thermal expansion effect.

Final polymorph ([1]; 60° C., DMAC/H2O = 1/1, 1 day): hydrate
Final polymorph ([1]; 60° C., H2O, 1 day): hydrate
Final polymorph ([1]; 70° C., EtOH, 3 days): A + B
Final polymorph ([1]; 70° C., n-PrOH, 3 days): A + B
SMILES: Cc1ccc(C(=O)NC2CC2)cc1-n1ncc(C(=O)c2cccc(C#N)c2)c1N [3-[5-amino-4-(3-cyanobenzoyl)-pyrazol-1-yl]-N-cyclopropyl-4-methylbenzamide]

Hygroscopicity [2]: non-hygroscopic
Temperature above which Form A converted to Form B on heating ([3]; variable temperature XRPD, heated from 25° C. to 200° C. at 1° C./min): above 100 °C
SMILES: Cc1ccc(C(=O)NC2CC2)cc1-n1ncc(C(=O)c2cccc(C#N)c2)c1N [Form A, 3-[5-amino-4-(3-cyanobenzoyl)-pyrazol-1-yl]-N-cyclopropyl-4-methylbenzamide]

Solid form by XRPD after cooling to room temperature ([3]; after heating to 200° C.): remained unchanged
SMILES: Cc1ccc(C(=O)NC2CC2)cc1-n1ncc(C(=O)c2cccc(C#N)c2)c1N [Form B, 3-[5-amino-4-(3-cyanobenzoyl)-pyrazol-1-yl]-N-cyclopropyl-4-methylbenzamide]

Source: US11434204B2, “Method for producing a polymorphic form of 3-[5-amino-4-(3-cyanobenzoyl)-pyrazol-1-yl]-N-cyclopropyl-4-methylbenzamide” (MEREO BIOPHARMA 1 LIMITED, priority 2016, dated 2022)
